According to ChEMBL document CHEMBL5338820, “Discovery and Design of Novel Cyclic Peptides as Specific Inhibitors Targeting CCN2 and Disrupting CCN2/EGFR Interaction for Kidney Fibrosis Treatment” (J Med Chem, 2023):
Calls of active or inactive are those of the source. No cut-off for these calls is given here. Peptide text beside a SMILES is read from it.

What was measured:
[1] = molecular target: T1, CCN family member 2 (Homo sapiens) (UniProt P29279); test: Inhibition of recombinant human CCN2 FL domain expressed in human […] cells assessed as reduction in STAT3 phosphorylation at 100 uM incubated for 24 hrs by Western blotting assay; assay type: cell-based
T1 sequence (whole entry): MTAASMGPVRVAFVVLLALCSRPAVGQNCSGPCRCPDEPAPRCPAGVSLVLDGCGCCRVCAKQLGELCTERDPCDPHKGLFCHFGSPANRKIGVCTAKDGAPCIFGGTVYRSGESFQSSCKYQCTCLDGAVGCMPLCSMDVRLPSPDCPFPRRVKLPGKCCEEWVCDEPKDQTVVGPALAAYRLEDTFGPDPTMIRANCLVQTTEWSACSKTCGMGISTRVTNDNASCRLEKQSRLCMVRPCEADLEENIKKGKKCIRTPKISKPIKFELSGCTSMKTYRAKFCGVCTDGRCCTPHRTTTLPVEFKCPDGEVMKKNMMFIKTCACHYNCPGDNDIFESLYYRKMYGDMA

CCN2-EGFR (Homo sapiens) [2] = molecular target: T2, CCN2-EGFR (Homo sapiens) (UniProt P00533+P29279); test: Inhibition of His-tagged full length human CCN2 FL domain/human Fc-tagged EGFR protein-protein interaction using TMB as chromogenic substrate at 100 uM incubated for 140 mins by microplate reader assay relative to control
[3] = molecular target: T1, CCN family member 2 (Homo sapiens); test: Inhibition of recombinant human CCN2 CT domain expressed in human […] cells assessed as reduction in COL1A1 synthesis at 100 uM incubated for 24 hrs by Western blotting assay; assay type: cell-based
[4] = Toxicity in Unilateral ureteric obstruction C57BL/6J mouse model assessed as change in hair color at 250 microg/kg,ip administrated for 14 days; settings: in vivo, 0.25 mg/kg, 336 h, dose 250 µg/kg, time 14 day
[5] = molecular target: T1, CCN family member 2 (Homo sapiens); test: Inhibition of recombinant human CCN2 CT domain expressed in human […] cells assessed as reduction in fibronectin synthesis at 100 uM incubated for 24 hrs by Western blotting assay; assay type: cell-based
Mus musculus [6] = test: Antifibrotic activity against Unilateral ureteric obstruction ligation induced C57BL/6J mouse kidney fibrosis model assessed as downregulation of STAT3 phosphorylation at 250 microg/kg,ip administrated for 14 days by Western blotting analysis; assay type: functional, organism-based; settings: dose 250.0 µg/kg, time 14.0 day
CCN2-EGFR (Homo sapiens) [7] = molecular target: T2, CCN2-EGFR (Homo sapiens); test: Inhibition of His-tagged full length human CCN2 CT domain/human Fc-tagged EGFR protein-protein interaction using TMB as chromogenic substrate at 100 uM incubated for 140 mins by microplate reader assay relative to control
[8] = Toxicity in Unilateral ureteric obstruction C57BL/6J mouse model assessed as change in body weight at 250 microg/kg,ip administrated for 14 days; settings: in vivo, 0.25 mg/kg, 336 h, dose 250 µg/kg, time 14 day
[9] = Toxicity in Unilateral ureteric obstruction C57BL/6J mouse model assessed as change in food consumption at 250 microg/kg,ip administrated for 14 days; settings: in vivo, 0.25 mg/kg, 336 h, dose 250 µg/kg, time 14 day
CCN family member 2 = molecular target: T3, CCN family member 2 (Homo sapiens, UniProt P29279); test: Binding affinity to His-tagged full length human CCN2 CT domain assessed as dissociation constant by isothermal titration calorimetry assay
T3 sequence (P29279 whole entry): T1 sequence (whole entry)

[10] = Toxicity in Unilateral ureteric obstruction C57BL/6J mouse model assessed as change in behaviour at 250 microg/kg,ip administrated for 14 days; settings: in vivo, 0.25 mg/kg, 336 h, dose 250 µg/kg, time 14 day
Mus musculus [11] = test: Antifibrotic activity against Unilateral ureteric obstruction ligation induced C57BL/6J mouse kidney fibrosis model assessed as reduction of inflammatory infiltration at 250 microg/kg,ip administrated for 14 days by hematoxylin and eosin staining based analysis; assay type: functional, organism-based; settings: dose 250.0 µg/kg, time 14.0 day
Mus musculus [12] = test: Antifibrotic activity against Unilateral ureteric obstruction ligation induced C57BL/6J mouse kidney fibrosis model assessed as downregulation of fibronectin synthesis at 250 microg/kg,ip administrated for 14 days by Western blotting analysis; assay type: functional, organism-based; settings: dose 250.0 µg/kg, time 14.0 day
Mus musculus [13] = test: Antifibrotic activity against Unilateral ureteric obstruction ligation induced C57BL/6J mouse kidney fibrosis model assessed as downregulation of COL1A1 synthesis at 250 microg/kg,ip administrated for 14 days by Western blotting analysis; assay type: functional, organism-based; settings: dose 250.0 µg/kg, time 14.0 day
Mus musculus [14] = test: Antifibrotic activity against Unilateral ureteric obstruction ligation induced C57BL/6J mouse kidney fibrosis model assessed as reduction of renal tubular injury at 250 microg/kg,ip administrated for 14 days by hematoxylin and eosin staining based analysis; assay type: functional, organism-based; settings: dose 250.0 µg/kg, time 14.0 day
Mus musculus [15] = test: Antifibrotic activity against Unilateral ureteric obstruction ligation induced C57BL/6J mouse kidney fibrosis model assessed as reduction of collagen formation at 250 microg/kg,ip administrated for 14 days by […] staining based analysis; assay type: functional, organism-based; settings: dose 250.0 µg/kg, time 14.0 day
Mus musculus [16] = test: Antifibrotic activity against Unilateral ureteric obstruction ligation induced C57BL/6J mouse kidney fibrosis model assessed as downregulation of EGFR phosphorylation at 250 microg/kg,ip administrated for 14 days by Western blotting analysis; assay type: functional, organism-based; settings: dose 250.0 µg/kg, time 14.0 day
[17] = molecular target: T1, CCN family member 2 (Homo sapiens); test: Inhibition of recombinant human CCN2 FL domain expressed in human […] cells assessed as reduction in fibronectin synthesis at 4 to 100 uM incubated for 24 hrs by Western blotting assay; assay type: cell-based; settings: dose 4-100 µM
[18] = molecular target: T1, CCN family member 2 (Homo sapiens); test: Inhibition of recombinant human CCN2 FL domain expressed in human […] cells assessed as reduction in COL1A1 synthesis at 4 to 100 uM incubated for 24 hrs by Western blotting assay; assay type: cell-based; settings: dose 4-100 µM
Mus musculus [19] = test: Antifibrotic activity against Unilateral ureteric obstruction ligation induced C57BL/6J mouse kidney fibrosis model assessed as downregulation of EGFR phosphorylation at 50 microg/kg,ip administrated for 14 days by Western blotting analysis; assay type: functional, organism-based; settings: dose 50.0 µg/kg, time 14.0 day
[20] = Toxicity in Unilateral ureteric obstruction C57BL/6J mouse model assessed as change in food consumption at 50 microg/kg,ip administrated for 14 days; settings: in vivo, 0.05 mg/kg, 336 h, dose 50 µg/kg, time 14 day
Mus musculus [21] = test: Antifibrotic activity against Unilateral ureteric obstruction ligation induced C57BL/6J mouse kidney fibrosis model assessed as reduction of collagen formation at 50 microg/kg,ip administrated for 14 days by […] staining based analysis; assay type: functional, organism-based; settings: dose 50.0 µg/kg, time 14.0 day
[22] = Toxicity in Unilateral ureteric obstruction C57BL/6J mouse model assessed as change in hair color at 50 microg/kg,ip administrated for 14 days; settings: in vivo, 0.05 mg/kg, 336 h, dose 50 µg/kg, time 14 day
[23] = Cmax in Sprague-Dawley rat at 1 mg/kg,SC measured upto 48 hrs by LC-MS/MS analysis; assay type: ADME, organism-based; parameters: time < 48 hrs, dose 1 mg/kg, route sc; settings: in vivo
Mus musculus [24] = test: Antifibrotic activity against Unilateral ureteric obstruction ligation induced C57BL/6J mouse kidney fibrosis model assessed as reduction of inflammatory infiltration at 50 microg/kg,ip administrated for 14 days by hematoxylin and eosin staining based analysis; assay type: functional, organism-based; settings: dose 50.0 µg/kg, time 14.0 day
[25] = Toxicity in Unilateral ureteric obstruction C57BL/6J mouse model assessed as change in behaviour at 50 microg/kg,ip administrated for 14 days; settings: in vivo, 0.05 mg/kg, 336 h, dose 50 µg/kg, time 14 day
[26] = Tmax in Sprague-Dawley rat at 1 mg/kg,SC measured upto 48 hrs by LC-MS/MS analysis; assay type: ADME, organism-based; settings: in vivo
Mus musculus [27] = test: Antifibrotic activity against Unilateral ureteric obstruction ligation induced C57BL/6J mouse kidney fibrosis model assessed as downregulation of COL1A1 synthesis at 50 microg/kg,ip administrated for 14 days by Western blotting analysis; assay type: functional, organism-based; settings: dose 50.0 µg/kg, time 14.0 day
Mus musculus [28] = test: Antifibrotic activity against Unilateral ureteric obstruction ligation induced C57BL/6J mouse kidney fibrosis model assessed as reduction of renal tubular injury at 50 microg/kg,ip administrated for 14 days by hematoxylin and eosin staining based analysis; assay type: functional, organism-based; settings: dose 50.0 µg/kg, time 14.0 day
[29] = Toxicity in Unilateral ureteric obstruction C57BL/6J mouse model assessed as change in body weight at 50 microg/kg,ip administrated for 14 days; settings: in vivo, 0.05 mg/kg, 336 h, dose 50 µg/kg, time 14 day
Mus musculus [30] = test: Antifibrotic activity against Unilateral ureteric obstruction ligation induced C57BL/6J mouse kidney fibrosis model assessed as downregulation of fibronectin synthesis at 50 microg/kg,ip administrated for 14 days by Western blotting analysis; assay type: functional, organism-based; settings: dose 50.0 µg/kg, time 14.0 day
[31] = Half life in Sprague-Dawley rat at 1 mg/kg,SC measured upto 48 hrs by LC-MS/MS analysis; assay type: ADME, organism-based; settings: in vivo
Mus musculus [32] = test: Antifibrotic activity against Unilateral ureteric obstruction ligation induced C57BL/6J mouse kidney fibrosis model assessed as downregulation of STAT3 phosphorylation at 50 microg/kg,ip administrated for 14 days by Western blotting analysis; assay type: functional, organism-based; settings: dose 50.0 µg/kg, time 14.0 day
[33] = molecular target: T1, CCN family member 2 (Homo sapiens); test: Inhibition of recombinant human CCN2 FL domain expressed in human HK-1 cells assessed as reduction in fibronectin synthesis at 20 uM incubated for 24 hrs by Western blotting assay; assay type: cell-based
[34] = AUC (0-t) in Sprague-Dawley rat at 1 mg/kg,SC measured upto 48 hrs by LC-MS/MS analysis; assay type: ADME, organism-based; parameters: time < 48 hrs, dose 1 mg/kg, route sc; settings: in vivo
[35] = molecular target: T1, CCN family member 2 (Homo sapiens); test: Inhibition of recombinant human CCN2 FL domain expressed in human […] cells assessed as reduction in COL1A1 synthesis at 20 uM incubated for 24 hrs by Western blotting assay; assay type: cell-based

T2 sequence (P00533 whole entry, looked up, one chain of several, the tested form may be a part): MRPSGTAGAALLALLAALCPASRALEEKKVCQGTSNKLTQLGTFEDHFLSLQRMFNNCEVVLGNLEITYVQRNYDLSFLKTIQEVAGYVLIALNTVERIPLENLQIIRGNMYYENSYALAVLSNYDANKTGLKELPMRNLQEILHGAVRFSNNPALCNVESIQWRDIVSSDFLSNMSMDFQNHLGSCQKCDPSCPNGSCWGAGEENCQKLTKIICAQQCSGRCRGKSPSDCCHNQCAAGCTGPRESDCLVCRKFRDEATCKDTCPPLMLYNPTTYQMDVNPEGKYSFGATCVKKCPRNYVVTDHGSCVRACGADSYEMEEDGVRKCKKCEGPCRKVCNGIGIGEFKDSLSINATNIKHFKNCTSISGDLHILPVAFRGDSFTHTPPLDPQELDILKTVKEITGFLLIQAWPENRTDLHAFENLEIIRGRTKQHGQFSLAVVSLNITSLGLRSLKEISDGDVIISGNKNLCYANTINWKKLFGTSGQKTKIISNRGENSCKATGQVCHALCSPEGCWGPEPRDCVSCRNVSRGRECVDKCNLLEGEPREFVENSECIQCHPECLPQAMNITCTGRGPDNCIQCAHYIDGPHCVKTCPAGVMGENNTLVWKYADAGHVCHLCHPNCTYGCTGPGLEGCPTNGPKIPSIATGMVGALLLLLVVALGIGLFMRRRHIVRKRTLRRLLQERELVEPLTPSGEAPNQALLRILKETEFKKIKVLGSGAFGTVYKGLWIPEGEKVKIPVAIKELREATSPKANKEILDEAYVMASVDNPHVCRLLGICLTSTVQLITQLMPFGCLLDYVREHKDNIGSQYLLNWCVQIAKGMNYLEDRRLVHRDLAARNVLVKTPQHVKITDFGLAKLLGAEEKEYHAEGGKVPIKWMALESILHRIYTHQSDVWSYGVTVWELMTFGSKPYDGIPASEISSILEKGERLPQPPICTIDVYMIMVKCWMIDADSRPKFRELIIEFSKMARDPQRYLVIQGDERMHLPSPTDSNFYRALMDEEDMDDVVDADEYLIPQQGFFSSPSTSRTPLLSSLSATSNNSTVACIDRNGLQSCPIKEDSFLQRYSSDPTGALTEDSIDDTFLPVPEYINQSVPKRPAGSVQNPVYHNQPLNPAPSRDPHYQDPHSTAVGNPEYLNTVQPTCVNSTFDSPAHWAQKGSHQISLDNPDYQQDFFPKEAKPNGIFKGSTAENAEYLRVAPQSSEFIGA

## C[C@@H](O)[C@H](N)C(=O)N[C@@H](CCCCN)C(=O)N[C@@H](Cc1c[nH]cn1)C(=O)N[C@@H](CCCNC(=N)N)C(=O)N1CCC[C@H]1C(=O)N[C@@H](Cc1c[nH]c2ccccc12)C(=O)N[C@H](C(N)=O)[C@@H](C)O (H-TKHRPWT-NH2)
[1]
  inhibition: Active
CCN2-EGFR (Homo sapiens) [2]
  inhibition: 62.3%
[3]
  inhibition: Active
[4]
  Activity: Non-Toxic
[5]
  inhibition: Active
Mus musculus [6]
  Activity: Active
CCN2-EGFR (Homo sapiens) [7]
  inhibition: 78.7%
[8]
  Activity: Non-Toxic
[9]
  Activity: Non-Toxic
CCN family member 2
  Kd: 3.9 µM
[10]
  Activity: Non-Toxic
Mus musculus [11]
  Activity: Active
Mus musculus [12]
  Activity: Active
Mus musculus [13]
  Activity: Active
Mus musculus [14]
  Activity: Active
Mus musculus [15]
  Activity: Active
Mus musculus [16]
  Activity: Active

## C[C@@H](O)[C@@H]1NC(=O)[C@H](Cc2c[nH]c3ccccc23)NC(=O)[C@@H]2CCCN2C(=O)[C@H](CCCNC(=N)N)NC(=O)[C@H](Cc2c[nH]cn2)NC(=O)[C@H](CCCCN)NC(=O)[C@H]([C@@H](C)O)NC1=O (cyclo(HRPWTTK))
[17]
  inhibition: Dose-Dependent Effect
[18]
  inhibition: Dose-Dependent Effect
[1]
  inhibition: Active
Mus musculus [19]
  Activity: Active
[20]
  Activity: Non-Toxic
Mus musculus [21]
  Activity: Active
CCN2-EGFR (Homo sapiens) [2]
  inhibition: 63.8%
[22]
  Activity: Non-Toxic
[23]
  Cmax: 1060 ng/mL
Mus musculus [24]
  Activity: Active
[25]
  Activity: Non-Toxic
[3]
  inhibition: Active
[5]
  inhibition: Active
[26]
  Tmax: 60 min
Mus musculus [27]
  Activity: Active
CCN2-EGFR (Homo sapiens) [7]
  inhibition: 76.7%
Mus musculus [28]
  Activity: Active
[29]
  Activity: Non-Toxic
CCN family member 2
  Kd: 3.1 µM
Mus musculus [30]
  Activity: Active
[31]
  half-life: 54 min
Mus musculus [32]
  Activity: Active
[33]
  inhibition: Active
[34]
  AUC(0-t) at 48 h: 3030 ng·h/mL
[35]
  inhibition: Active
